Measurements published in ChEMBL document CHEMBL1201862, “PubChem BioAssay data set” (2004).
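Exposure lasted 48 hours, with cells grown in 96-well plates and compounds tested at five concentrations. GI50 = concentration required for 50% inhibition of growth.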 Calls of active or inactive are those of the source. Rule as the data show it: active = GI50 up to about 1.1 µM and inactive = higher.

Key:
Experiment in all cases: inhibition of tumour cell growth, NCI panel, 48 h
HOP-62 = system: HOP-62
OVCAR-4 = system: OVCAR-4
K562 = system: K562
U-251 = system: U-251
CAKI-1 = system: CAKI-1
SNB-75 = system: SNB-75
SK-MEL-28 = system: SK-MEL-28
786-0 = system: 786-0
OVCAR-3 = system: OVCAR-3
Malme-3M = system: Malme-3M
M19-MEL = system: M19-MEL
MOLT-4 = system: MOLT-4
NCI-H460 = system: NCI-H460
SK-MEL-2 = system: SK-MEL-2
HL-60 = system: HL-60
HT-29 = system: HT-29
PC-3 = system: PC-3
NCI/ADR-RES = system: NCI/ADR-RES
MDA-N = system: MDA-N
BT-549 = system: BT-549

Measured: GI50

CN1C(=O)c2cccc3c([N+](=O)[O-])ccc(c23)C1=O
inactive: HOP-62 12.1 µM | OVCAR-4 13 µM | K562 4.1 µM | U-251 3.7 µM | CAKI-1 2.45 µM | SNB-75 12.3 µM | SK-MEL-28 18.8 µM | 786-0 8.85 µM | OVCAR-3 3.19 µM | Malme-3M 16.2 µM | M19-MEL 10.4 µM | MOLT-4 5.55 µM | NCI-H460 2.56 µM | SK-MEL-2 10.8 µM

C#CCSc1nc(N)c2ncn(C3OC(COP(=O)(O)O)C(O)C3O)c2n1 (stereo unspecified)
inactive: HL-60 > 239 µM | HOP-62 > 239 µM | OVCAR-4 > 239 µM | K562 > 239 µM | HT-29 > 239 µM | CAKI-1 > 239 µM | SNB-75 > 239 µM | SK-MEL-28 > 239 µM | 786-0 > 239 µM | OVCAR-3 > 239 µM | Malme-3M > 239 µM | M19-MEL > 239 µM | MOLT-4 > 239 µM | NCI-H460 > 239 µM | SK-MEL-2 > 239 µM

O=C(O)/C=C/n1c2ccccc2c(=O)c2ccccc21
inactive: HL-60 > 100 µM | HOP-62 > 100 µM | OVCAR-4 > 100 µM | K562 > 100 µM | U-251 > 100 µM | HT-29 > 100 µM | CAKI-1 > 100 µM | SK-MEL-28 > 100 µM | 786-0 > 100 µM | OVCAR-3 > 100 µM | Malme-3M > 100 µM | M19-MEL > 100 µM | MOLT-4 > 100 µM | NCI-H460 > 100 µM | SK-MEL-2 > 100 µM

Nc1ccc(C2=Nc3ccccc3SC(c3ccccc3O)C2)cc1 (stereo unspecified)
inactive: HL-60 23.9 µM | HOP-62 64 µM | OVCAR-4 51.6 µM | K562 15.3 µM | U-251 45.5 µM | HT-29 42.8 µM | CAKI-1 58.9 µM | SNB-75 24.7 µM | SK-MEL-28 65.8 µM | 786-0 28.8 µM | OVCAR-3 23.3 µM | Malme-3M > 100 µM | M19-MEL 50 µM | MOLT-4 19.8 µM | NCI-H460 30.6 µM | SK-MEL-2 > 100 µM

NC(CCC(=O)NC(CSC(=O)N(O)c1ccccc1)C(=O)NCC(=O)O)C(=O)O (stereo unspecified)
inactive: HL-60 > 1000 µM | HOP-62 > 1000 µM | OVCAR-4 > 1000 µM | K562 > 1000 µM | U-251 > 1000 µM | HT-29 > 1000 µM | CAKI-1 > 1000 µM | SNB-75 > 1000 µM | SK-MEL-28 > 1000 µM | 786-0 > 1000 µM | OVCAR-3 > 1000 µM | Malme-3M > 1000 µM | M19-MEL > 1000 µM | NCI-H460 > 1000 µM | SK-MEL-2 > 1000 µM

CCOC(=O)C1C(=O)C(=O)N2CCc3c([nH]c4ccccc34)C12 (stereo unspecified)
inactive: HL-60 > 100 µM | HOP-62 > 100 µM | OVCAR-4 > 100 µM | K562 > 100 µM | U-251 > 100 µM | HT-29 > 100 µM | CAKI-1 > 100 µM | SK-MEL-28 > 100 µM | 786-0 > 100 µM | OVCAR-3 > 100 µM | Malme-3M > 100 µM | M19-MEL > 100 µM | MOLT-4 > 100 µM | SK-MEL-2 > 100 µM

CCOC(=O)NC(=O)c1cn(CCN2CCNCC2)c(=O)[nH]c1=O
inactive: HL-60 > 100 µM | HOP-62 > 100 µM | OVCAR-4 > 100 µM | K562 > 100 µM | U-251 > 100 µM | HT-29 > 100 µM | CAKI-1 > 100 µM | SK-MEL-28 > 100 µM | 786-0 > 100 µM | OVCAR-3 > 100 µM | M19-MEL > 100 µM | MOLT-4 > 100 µM | NCI-H460 > 100 µM | SK-MEL-2 > 100 µM

O=S1(=O)CS(=O)(=O)OCCCCCO1
inactive: OVCAR-4 > 100 µM | K562 > 100 µM | U-251 > 100 µM | HT-29 > 100 µM | CAKI-1 > 100 µM | SNB-75 > 100 µM | SK-MEL-28 > 100 µM | 786-0 > 100 µM | Malme-3M > 100 µM | M19-MEL > 100 µM | NCI-H460 > 100 µM | SK-MEL-2 > 100 µM

C[N+]1(C)C/C(=C\c2ccc(O)cc2)C(=O)/C(=C/c2ccc(O)cc2)C1
inactive: HL-60 19.5 µM | HOP-62 > 100 µM | OVCAR-4 > 100 µM | U-251 49.5 µM | HT-29 > 100 µM | CAKI-1 > 100 µM | SNB-75 > 100 µM | SK-MEL-28 > 100 µM | 786-0 > 100 µM | OVCAR-3 > 100 µM | Malme-3M > 100 µM | M19-MEL > 100 µM | MOLT-4 47.4 µM | NCI-H460 29 µM

COc1ccc(CNc2cnc3cc(N)ccc3n2)cc1OC
inactive: HL-60 > 100 µM | HOP-62 > 100 µM | OVCAR-4 > 100 µM | K562 > 100 µM | HT-29 > 100 µM | CAKI-1 > 100 µM | SNB-75 > 100 µM | SK-MEL-28 > 100 µM | 786-0 > 100 µM | OVCAR-3 > 100 µM | Malme-3M > 100 µM | M19-MEL > 100 µM | MOLT-4 > 100 µM | NCI-H460 > 100 µM | SK-MEL-2 > 100 µM

CC(C)(C)C#COC(=O)c1ccccc1
inactive: HL-60 > 100 µM | HOP-62 > 100 µM | OVCAR-4 > 100 µM | K562 > 100 µM | U-251 > 100 µM | HT-29 > 100 µM | CAKI-1 > 100 µM | 786-0 > 100 µM | OVCAR-3 > 100 µM | Malme-3M > 100 µM | M19-MEL > 100 µM | MOLT-4 > 100 µM | NCI-H460 > 100 µM | SK-MEL-2 > 100 µM

FC(F)(F)c1ccc2nc(NCc3ccccc3)c(-c3ccccc3)nc2c1
inactive: HL-60 19.3 µM | HOP-62 52.1 µM | U-251 21 µM | HT-29 36 µM | SNB-75 46.2 µM | SK-MEL-28 84.9 µM | 786-0 20.3 µM | OVCAR-3 27.6 µM | Malme-3M 25.4 µM | M19-MEL 32.1 µM | MOLT-4 24.7 µM | NCI-H460 41 µM | SK-MEL-2 32.9 µM

Cc1ccc(/C=C(\C#N)c2ccccc2)cc1
inactive: HOP-62 > 100 µM | OVCAR-4 > 100 µM | K562 > 100 µM | U-251 > 100 µM | HT-29 > 100 µM | CAKI-1 > 100 µM | SNB-75 > 100 µM | SK-MEL-28 > 100 µM | 786-0 > 100 µM | OVCAR-3 > 100 µM | M19-MEL > 100 µM | MOLT-4 > 100 µM | NCI-H460 > 100 µM | SK-MEL-2 > 100 µM

CC(=O)OC1C[C@H]2C(OC(=O)c3ccccc3)C3C4(OC(C)=O)COC4C[C@H](OC(C)=O)[C@@]3(C)C(OC(C)=O)[C@H](OC(C)=O)C(=C1C)C2(C)C (stereo partly specified)
inactive: HL-60 16.7 µM | HOP-62 40 µM | OVCAR-4 36.7 µM | K562 23.8 µM | HT-29 49.3 µM | CAKI-1 13.5 µM | SNB-75 14.3 µM | SK-MEL-28 > 100 µM | 786-0 35.9 µM | OVCAR-3 64.7 µM | Malme-3M 71.8 µM | M19-MEL 57.9 µM | MOLT-4 20.1 µM | NCI-H460 35.5 µM | SK-MEL-2 33.3 µM

CC(C)C(CCOS(=O)(=O)O)CCC(C)[C@H]1[C@@H](O)C(O)C2[C@]3(O)C[C@@H](O)C4(O)C[C@@H](O)CC[C@]4(C)C3CC[C@@]21C (stereo partly specified)
inactive: HL-60 > 100 µM | HOP-62 > 100 µM | OVCAR-4 > 100 µM | K562 > 100 µM | U-251 > 100 µM | HT-29 > 100 µM | CAKI-1 > 100 µM | SK-MEL-28 > 100 µM | 786-0 > 100 µM | OVCAR-3 > 100 µM | Malme-3M > 100 µM | M19-MEL > 100 µM | NCI-H460 > 100 µM | SK-MEL-2 > 100 µM

c1ccc(CSSSCc2ccccc2)cc1 [DIBENZYL TRISULFIDE]
active: HL-60 0.378 µM | HOP-62 0.964 µM | K562 0.127 µM | HT-29 1 µM | 786-0 0.463 µM | OVCAR-3 0.423 µM | MOLT-4 0.139 µM | SK-MEL-2 1.08 µM
inactive: OVCAR-4 2.3 µM | U-251 2.01 µM | CAKI-1 1.41 µM | SNB-75 7.18 µM | SK-MEL-28 20.7 µM | Malme-3M 7.36 µM | PC-3 1.32 µM | NCI-H460 1.7 µM | NCI/ADR-RES 1.86 µM | MDA-N 1.25 µM | BT-549 3.27 µM

C=C1C(=O)O[C@H]2[C@H]1[C@H](OC(=O)/C(C)=C\C)C[C@]1(CO1)[C@@H]1[C@H](OC(C)=O)C=C(C)[C@]21O [EUPAROTIN ACETATE]
inactive: HL-60 2.66 µM | HOP-62 74 µM | OVCAR-4 32.8 µM | U-251 21.9 µM | HT-29 12.4 µM | CAKI-1 17.3 µM | SNB-75 67.5 µM | SK-MEL-28 14.7 µM | 786-0 7.46 µM | OVCAR-3 14.7 µM | Malme-3M 13.5 µM | PC-3 23.1 µM | MOLT-4 5.18 µM | NCI-H460 28 µM | NCI/ADR-RES 21.5 µM | SK-MEL-2 25.5 µM | MDA-N 13.2 µM | BT-549 8.13 µM
active: K562 0.383 µM

C[C@]12CC[C@H]3[C@@H](CC[C@]4(O)C[C@@H](O)CC[C@]34C=O)[C@@]1(O)CC[C@@H]2C1=CC(=O)OC1 [STROPHANTHIDIN]
active: HL-60 0.347 µM | HOP-62 0.159 µM | OVCAR-4 0.298 µM | K562 0.605 µM | U-251 0.698 µM | HT-29 0.406 µM | CAKI-1 0.19 µM | 786-0 0.321 µM | OVCAR-3 0.421 µM | Malme-3M 0.435 µM | PC-3 0.453 µM | MOLT-4 0.112 µM | NCI-H460 0.195 µM | NCI/ADR-RES 0.403 µM | MDA-N 0.372 µM | BT-549 0.355 µM
inactive: SNB-75 1.14 µM | SK-MEL-28 1.73 µM | SK-MEL-2 1.61 µM
